Legend:
Type in all cases: biochemical
Conditions in all cases: 1 μM inhibitor concentration
[1] = biological target: GCK (Homo sapiens (Human), UniProt Q12851); assay: GCK kinase selectivity assay
Procedure: (§1) GCK (5-20 mU diluted in 50 mM Tris pH 7.5, 0.1 mM EGTA, 0.1% β-mercaptoethanol, 1 mg/ml BSA) is assayed against MBP in a final volume of 25.5 μl containing 50 mM Tris pH 7.5, 0.1 mM EGTA, 0.33 mg/ml MBP, 10 mM magnesium acetate and 0.02 mM [33P-γ-ATP] (50-1000 cpm/pmole) and incubated for 30 min at room temperature. Assays are stopped by addition of 5 μl of 0.5 M (3%) orthophosphoric acid and then harvested onto P81 Unifilter plates with a wash buffer of 50 mM orthophosphoric acid.

[2] = biological target: FGF-R1 (Homo sapiens (Human), UniProt P11362); assay: FGF-R1 kinase selectivity assay
Chain of FGF-R1 (P11362 22-822, species assumed): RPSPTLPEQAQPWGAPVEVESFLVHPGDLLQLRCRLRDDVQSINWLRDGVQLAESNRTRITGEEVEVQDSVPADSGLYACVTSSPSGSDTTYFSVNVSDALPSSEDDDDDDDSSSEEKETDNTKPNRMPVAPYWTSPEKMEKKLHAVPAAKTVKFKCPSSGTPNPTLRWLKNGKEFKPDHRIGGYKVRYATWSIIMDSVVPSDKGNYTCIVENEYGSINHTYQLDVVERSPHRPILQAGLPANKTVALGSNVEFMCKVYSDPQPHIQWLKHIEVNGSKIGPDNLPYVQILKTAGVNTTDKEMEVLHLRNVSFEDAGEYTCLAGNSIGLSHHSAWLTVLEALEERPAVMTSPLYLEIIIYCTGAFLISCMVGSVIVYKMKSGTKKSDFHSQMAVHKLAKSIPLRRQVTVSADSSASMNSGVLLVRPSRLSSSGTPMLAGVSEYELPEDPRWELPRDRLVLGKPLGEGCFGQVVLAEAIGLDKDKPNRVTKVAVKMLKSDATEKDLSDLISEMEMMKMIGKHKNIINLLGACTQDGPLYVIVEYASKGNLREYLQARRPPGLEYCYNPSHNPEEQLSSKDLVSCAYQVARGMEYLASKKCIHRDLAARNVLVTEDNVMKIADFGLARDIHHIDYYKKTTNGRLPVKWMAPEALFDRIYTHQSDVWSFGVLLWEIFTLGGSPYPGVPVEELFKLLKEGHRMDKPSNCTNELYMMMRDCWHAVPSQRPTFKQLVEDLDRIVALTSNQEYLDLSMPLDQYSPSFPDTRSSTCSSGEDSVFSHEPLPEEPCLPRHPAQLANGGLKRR
Procedure: as §1, with “FGF-R1” for “GCK”, “EGTA,” for “EGTA, 0.1% β-mercaptoethanol,”, “a substrate peptide (Poly Glut Tyr)” for “MBP”, “1” for “0.1 mM EGTA, 0.33”, “substrate peptide,” for “MBP,”, “[33P-g-ATP]” for “[33P-γ-ATP]”

[3] = biological target: PRK2 (Homo sapiens (Human), UniProt Q16513); assay: PRK2 kinase selectivity assay
Chain of PRK2 (Q16513 whole entry, species assumed): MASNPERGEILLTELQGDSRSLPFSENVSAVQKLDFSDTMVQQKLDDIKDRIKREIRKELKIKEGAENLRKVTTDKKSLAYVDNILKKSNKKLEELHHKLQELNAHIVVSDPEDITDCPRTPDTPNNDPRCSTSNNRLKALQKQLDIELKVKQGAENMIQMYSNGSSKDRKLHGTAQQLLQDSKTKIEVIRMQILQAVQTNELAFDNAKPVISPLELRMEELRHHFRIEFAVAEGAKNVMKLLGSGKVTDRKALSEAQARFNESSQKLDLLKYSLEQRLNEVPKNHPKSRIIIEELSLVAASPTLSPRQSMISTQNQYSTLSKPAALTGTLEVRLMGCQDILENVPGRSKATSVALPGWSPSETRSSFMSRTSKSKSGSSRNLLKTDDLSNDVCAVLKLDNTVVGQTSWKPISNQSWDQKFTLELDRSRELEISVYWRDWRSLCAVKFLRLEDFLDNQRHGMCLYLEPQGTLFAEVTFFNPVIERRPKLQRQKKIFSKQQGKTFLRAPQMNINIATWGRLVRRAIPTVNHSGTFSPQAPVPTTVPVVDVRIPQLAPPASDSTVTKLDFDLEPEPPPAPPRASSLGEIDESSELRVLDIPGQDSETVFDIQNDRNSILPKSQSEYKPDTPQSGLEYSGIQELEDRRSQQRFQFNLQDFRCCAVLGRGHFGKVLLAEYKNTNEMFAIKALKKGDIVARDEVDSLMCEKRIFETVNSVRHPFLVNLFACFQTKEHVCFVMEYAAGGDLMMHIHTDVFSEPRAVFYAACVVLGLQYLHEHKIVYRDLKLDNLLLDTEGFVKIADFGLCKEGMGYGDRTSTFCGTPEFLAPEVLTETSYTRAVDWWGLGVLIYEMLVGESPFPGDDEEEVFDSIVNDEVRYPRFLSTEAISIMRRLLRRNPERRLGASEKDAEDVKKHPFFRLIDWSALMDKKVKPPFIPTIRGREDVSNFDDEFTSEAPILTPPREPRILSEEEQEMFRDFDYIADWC
Procedure: (§2) 5-20 mU of PRK2 (diluted in 50 mM Tris (pH 7.5), 0.1 mM EGTA, 1 mg/ml BSA, 0.1%, b-Mercaptoethanol) is assayed against Long S6 peptide ([…]) in a final volume of 25.5 μl containing 50 mM Tris (pH 7.5), 0.1 mM EGTA, 0.1%, b-Mercaptoethanol, 30 μM Long S6 peptide, 10 mM magnesium acetate and 0.005 mM [33P-g-ATP](500-1000 cpm/pmole) and incubated for 30 mins at room temperature. Assays are stopped by addition of 5 μl of 0.5M (3%) orthophosphoric acid. Assays are harvested onto P81 Unifilter plates using a wash buffer of 50 mM orthophosphoric acid.

[4] = biological target: PIM1 (Homo sapiens (Human), UniProt P11309); assay: PIM1 kinase selectivity assay
Chain of PIM1 (P11309 whole entry, species assumed): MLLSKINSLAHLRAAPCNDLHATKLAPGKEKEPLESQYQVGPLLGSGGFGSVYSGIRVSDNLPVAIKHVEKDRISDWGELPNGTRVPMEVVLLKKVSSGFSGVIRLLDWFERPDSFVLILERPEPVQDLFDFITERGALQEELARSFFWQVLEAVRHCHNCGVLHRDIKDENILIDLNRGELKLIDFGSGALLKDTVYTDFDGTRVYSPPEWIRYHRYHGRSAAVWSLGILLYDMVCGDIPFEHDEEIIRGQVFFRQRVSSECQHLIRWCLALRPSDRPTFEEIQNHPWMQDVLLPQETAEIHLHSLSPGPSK
Procedure: as §1, with “PIM1” for “GCK”, “b-mercaptoethanol,” for “β-mercaptoethanol,”, “a substrate peptide ([…])” for “MBP”, “0.05% b-mercaptoethanol, 300 μM substrate peptide,” for “0.1 mM EGTA, 0.33 mg/ml MBP,”, “[33P-g-ATP]” for “[33P-γ-ATP]”

[5] = biological target: TAK1 (Homo sapiens (Human), UniProt O43318); assay: TAK1 kinase selectivity assay
Chain of TAK1 (O43318 1-303): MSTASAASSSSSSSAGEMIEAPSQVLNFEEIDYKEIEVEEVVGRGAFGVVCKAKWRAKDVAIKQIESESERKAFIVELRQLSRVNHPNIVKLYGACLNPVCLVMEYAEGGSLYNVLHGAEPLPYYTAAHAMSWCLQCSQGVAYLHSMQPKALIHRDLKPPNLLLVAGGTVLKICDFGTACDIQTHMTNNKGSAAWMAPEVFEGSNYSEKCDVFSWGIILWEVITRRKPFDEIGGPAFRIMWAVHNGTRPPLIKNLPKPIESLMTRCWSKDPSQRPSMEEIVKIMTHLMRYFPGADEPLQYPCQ
Procedure: TAK1 (5-20 mU diluted in 50 mM Tris pH 7.5, 0.1 mM EGTA, 1 mg/ml BSA) is assayed against a substrate peptide ([…]) in a final volume of 25.5 μl containing 50 mM Tris pH 7.5, 0.1 mM EGTA, 0.1% β-Mercaptoethanol, 300 μM substrate peptide, 10 mM magnesium acetate, 0.5 mM MnCl and 0.005 mM [33P-γ-ATP](50-1000 cpm/pmole) and incubated for 30 min at room temperature. Assays are stopped by addition of 5 μl of 0.5 M (3%) orthophosphoric acid and then harvested onto P81 Unifilter plates with a wash buffer of 50 mM orthophosphoric acid.

[6] = biological target: SRPK1 (Homo sapiens (Human), UniProt Q96SB4); assay: SRPK1 kinase selectivity assay
Chain of SRPK1 (Q96SB4 whole entry, species assumed): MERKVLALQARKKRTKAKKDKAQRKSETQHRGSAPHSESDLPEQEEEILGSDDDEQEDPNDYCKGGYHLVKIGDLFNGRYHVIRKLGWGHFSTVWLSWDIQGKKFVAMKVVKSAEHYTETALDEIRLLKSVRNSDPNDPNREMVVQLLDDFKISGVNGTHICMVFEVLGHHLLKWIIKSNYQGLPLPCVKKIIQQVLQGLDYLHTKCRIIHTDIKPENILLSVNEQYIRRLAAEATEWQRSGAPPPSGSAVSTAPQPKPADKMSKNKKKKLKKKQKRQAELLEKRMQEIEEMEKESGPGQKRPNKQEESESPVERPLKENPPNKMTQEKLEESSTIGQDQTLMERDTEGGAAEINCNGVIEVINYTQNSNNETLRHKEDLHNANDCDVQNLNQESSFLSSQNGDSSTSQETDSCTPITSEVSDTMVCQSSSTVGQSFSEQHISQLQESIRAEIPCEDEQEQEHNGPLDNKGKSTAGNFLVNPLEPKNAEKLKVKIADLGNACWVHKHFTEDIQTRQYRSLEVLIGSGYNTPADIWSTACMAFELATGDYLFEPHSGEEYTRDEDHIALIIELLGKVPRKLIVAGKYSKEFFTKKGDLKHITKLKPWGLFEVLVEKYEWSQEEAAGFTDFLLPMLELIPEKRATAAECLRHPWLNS
Procedure: as §2, with “of SRPK1” for “of PRK2”, “against substrate” for “against Long S6”, “of […]” for “of 25.5”, “b-Mercaptoethanol, 300” for “b-Mercaptoethanol, 30”, “μM substrate” for “μM Long S6”, “and 0.05” for “and 0.005”

[7] = biological target: LKB1 (Homo sapiens (Human), UniProt Q15831); assay: LKB1 kinase selectivity assay
Procedure: as §1, with “LKB1” for “GCK”, “MBP” left out, “0.2 mM […],” for “0.33 mg/ml MBP,”

[8] = biological target: DYRK1A (Homo sapiens (Human), UniProt Q13627); assay: DYRK1A kinase selectivity assay
Procedure: DYRK 1A (5-20 mU of diluted in 50 mM Tris pH7.5, 0.1 mM EGTA) is assayed against Woodtide ([…]) in a final volume of 25.5 μl containing 50 mM Tris pH 7.5, 0.1 mM EGTA, 350 μM substrate peptide, 10 mM Magnesium acetate and 0.05 mM [33P-g-ATP](50-1000 cpm/pmole) and incubated for 30 min at room temperature. Assays are stopped by addition of 5 μl of 0.5 M (3%) orthophosphoric acid and then harvested onto P81 Unifilter plates with a wash buffer of 50 mM orthophosphoric acid.

[9] = biological target: MINK1 (Homo sapiens (Human), UniProt Q8N4C8); assay: MINK1 kinase selectivity assay
Chain of MINK1 (Q8N4C8 whole entry, species assumed): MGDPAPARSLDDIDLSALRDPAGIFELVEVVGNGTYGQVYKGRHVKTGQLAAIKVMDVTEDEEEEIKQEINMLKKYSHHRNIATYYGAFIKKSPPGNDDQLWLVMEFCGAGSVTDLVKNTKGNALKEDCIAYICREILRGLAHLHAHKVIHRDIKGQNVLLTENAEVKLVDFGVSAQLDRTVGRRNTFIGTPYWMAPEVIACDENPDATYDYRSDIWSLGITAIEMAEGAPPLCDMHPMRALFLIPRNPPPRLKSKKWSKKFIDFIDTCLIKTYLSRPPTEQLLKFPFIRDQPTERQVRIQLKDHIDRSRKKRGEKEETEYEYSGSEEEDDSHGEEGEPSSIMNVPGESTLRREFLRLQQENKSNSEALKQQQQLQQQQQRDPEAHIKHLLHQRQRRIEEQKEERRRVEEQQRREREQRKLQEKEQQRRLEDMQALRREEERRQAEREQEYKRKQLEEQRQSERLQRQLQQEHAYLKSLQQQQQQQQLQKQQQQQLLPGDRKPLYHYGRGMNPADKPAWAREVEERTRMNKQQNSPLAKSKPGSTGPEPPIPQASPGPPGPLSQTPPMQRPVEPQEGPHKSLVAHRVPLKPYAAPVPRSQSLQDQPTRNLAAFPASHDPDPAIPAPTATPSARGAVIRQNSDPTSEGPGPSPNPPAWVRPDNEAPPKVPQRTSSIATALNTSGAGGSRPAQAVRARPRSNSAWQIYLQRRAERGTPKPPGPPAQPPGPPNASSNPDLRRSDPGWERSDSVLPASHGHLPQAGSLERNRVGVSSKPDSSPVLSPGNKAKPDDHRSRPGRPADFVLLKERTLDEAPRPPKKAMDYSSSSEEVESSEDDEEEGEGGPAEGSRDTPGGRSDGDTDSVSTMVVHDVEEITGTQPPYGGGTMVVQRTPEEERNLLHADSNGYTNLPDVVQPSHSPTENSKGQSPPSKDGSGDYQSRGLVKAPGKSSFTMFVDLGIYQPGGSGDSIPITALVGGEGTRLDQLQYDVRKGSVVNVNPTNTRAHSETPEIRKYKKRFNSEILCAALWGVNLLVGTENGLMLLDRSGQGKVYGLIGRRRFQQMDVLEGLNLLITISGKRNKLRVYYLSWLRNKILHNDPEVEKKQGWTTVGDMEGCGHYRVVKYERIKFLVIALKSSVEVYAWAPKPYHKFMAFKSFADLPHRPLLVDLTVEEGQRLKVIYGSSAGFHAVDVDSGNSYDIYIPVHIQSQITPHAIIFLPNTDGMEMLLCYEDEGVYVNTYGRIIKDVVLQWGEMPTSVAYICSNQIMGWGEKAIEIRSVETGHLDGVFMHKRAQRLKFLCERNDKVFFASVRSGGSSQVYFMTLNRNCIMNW
Procedure: as §1, with “MINK1” for “GCK”, “0.05” for “0.02”

Row | Compound | percentage inhibition of GCK [1] | percentage inhibition of FGF-R1 [2] | percentage inhibition of PRK2 [3] | percentage inhibition of PIM1 [4] | percentage inhibition of TAK1 [5] | percentage inhibition of SRPK1 [6] | percentage inhibition of LKB1 [7] | percentage inhibition of DYRK1A [8] | percentage inhibition of MINK1 [9]
1 | c1cc2[nH]nc3c2c(n1)N(C1CCOCC1)CCC3 [Example 29, 6-(tetrahydro-2H-pyran-4-yl)-6,7,8,9-tetrahydro-2H-1,2,5,6-tetraazabenzo[cd]azulene] | 67 percentage | 12 percentage | 0 percentage | 0 percentage | 65 percentage | 0 percentage | 6 percentage | 4 percentage | 0 percentage
2 | CN1CCC(N2Cc3ccccc3-c3n[nH]c4ccnc2c34)CC1 [Example 55] | 71 percentage | 9 percentage | 0 percentage | 26 percentage | 64 percentage | 0 percentage | 0 percentage | 8 percentage | 12 percentage
3 | c1cc2[nH]nc3c2c(n1)N(C1CCCC1)CCC3 [Example 23, 6-cyclopentyl-6,7,8,9-tetrahydro-2H-1,2,5,6-tetraazabenzo[cd]azulene] | 41 percentage | 19 percentage | 0 percentage | 0 percentage | 49 percentage | 0 percentage | 16 percentage | 0 percentage | 0 percentage
4 | CC(C)n1ncc2c1CN(C1CCN(C)CC1)c1nccc3[nH]nc-2c13 [Example 68] | 27 percentage | 35 percentage | 8 percentage | 77 percentage | 36 percentage | 0 percentage | 0 percentage | 0 percentage | 7 percentage
5 | c1cc2[nH]nc3c2c(n1)N(C1CCC1)CCC3 [Example 22, 6-cyclobutyl-6,7,8,9-tetrahydro-2H-1,2,5,6-tetraazabenzo[cd]azulene] | 56 percentage | 11 percentage | 2 percentage | 0 percentage | 64 percentage | 0 percentage | 20 percentage | 16 percentage | 0 percentage
